Source: ChEMBL document CHEMBL3272102, “Carboxyarylindoles as nonsteroidal antiinflammatory agents” (J Med Chem, 1976)

Columns and labels:
[1] = tested on: Rattus norvegicus; experiment: Antiinflammatory activity in Wistar rat assessed as inhibition of carrageenan-induced paw edema at 200 mg/kg, po administered 30 mins prior to 1%, sc carrageenan challenge measured after 3 hrs; assay type: functional
[2] = tested on: Rattus norvegicus; experiment: Antiinflammatory activity in po dosed Wistar rat assessed as inhibition of carrageenan-induced paw edema administered 30 mins prior to 1%, sc carrageenan challenge measured after 3 hrs; assay type: functional
[3] = tested on: Rattus norvegicus; experiment: Antiinflammatory activity in po dosed Wistar rat assessed as inhibition of carrageenan-induced paw edema administered 60 mins prior to 1%, sc carrageenan challenge measured after 3 hrs; assay type: functional
[4] = tested on: Rattus norvegicus; experiment: Toxicity in po dosed Wistar rat; assay type: organism-based; details: in vivo
[5] = tested on: Rattus norvegicus; experiment: Antiinflammatory activity in po dosed Wistar rat assessed as inhibition of carrageenan-induced paw edema administered 120 mins prior to 1%, sc carrageenan challenge measured after 3 hrs; assay type: functional

| Compound | inhibition in vivo at 200 mg/kg [1] | further results |
| --- | --- | --- |
| CC1CCc2c(cc(-c3ccccc3)n2-c2ccc(O)c(C(=O)O)c2)C1 (stereo not given) | 40% |  |
| N#Cc1ccc(-c2cc3c(n2-c2ccc(O)c(C(=O)O)c2)CCCC3)cc1 | 0% |  |
| CC(=O)Oc1ccc(-n2c(-c3ccccc3)cc3c2CCCC3)cc1C(=O)O | 50% |  |
| O=C(O)c1cc(-n2c(-c3ccccc3)cc3c2CCCC3)c(C(F)(F)F)cc1O | 0% |  |
| COc1ccccc1-c1cc2c(n1-c1ccc(O)c(C(=O)O)c1)CCCC2 | 50% |  |
| O=C(O)c1cc(-n2c(-c3ccc(Cl)c(Cl)c3)cc3c2CCCC3)ccc1O | 0% |  |
| O=C(O)c1cc(-n2c(-c3ccccc3)cc3c2CCCC3)ccc1S | 50% |  |
| COc1ccc(-c2cc3c(n2-c2ccc(O)c(C(=O)O)c2)CCCC3)cc1 | 50% | ED50 [2]: 173 mg/kg |
| O=C(O)c1cc(-n2c(-c3ccc(-c4ccccc4)cc3)cc3c2CCCC3)ccc1O | 50% | ED50 [2]: 162 mg/kg |
| CCOC(=O)c1cc(-n2c(-c3ccccc3)cc3c2CCc2ccccc2-3)ccc1O | 0% |  |
| O=C(O)c1cc(-n2c(-c3ccccc3)cc3c2CCCC3=O)ccc1O | 0% |  |
| COc1ccc2c(c1)CCc1c-2cc(-c2ccccc2)n1-c1ccc(O)c(C(=O)O)c1 | 50% | ED50 [3]: 164 mg/kg |
| COc1cccc(-c2cc3c(n2-c2ccc(O)c(C(=O)O)c2)CCCC3)c1 | 20% |  |
| O=C(O)c1cc(-n2c(-c3ccccc3)cc3c2CCCC3)cc(Br)c1O | 0% |  |
| O=C(O)c1cc(-n2c(-c3ccc(Br)cc3)cc3c2CCCC3)ccc1O | 40% |  |
| O=C(O)c1cc(-n2c(-c3ccccc3)cc3c2CCCC3)ccc1O | ≥ 60% | ED50 [2]: 87 mg/kg |
| O=C(O)c1cc(-n2c3c(c(-c4ccccc4)c2-c2ccccc2)CCCC3)ccc1O | 30% |  |
| Cc1ccc(-c2cc3c(n2-c2ccc(O)c(C(=O)O)c2)CCCC3)cc1 | 30% |  |
| COc1ccc(-n2c(-c3ccccc3)cc3c2CCCC3)cc1C(=O)O | 40% |  |
| CC(C)(C)C1CCc2c(cc(-c3ccccc3)n2-c2ccc(O)c(C(=O)O)c2)C1 (stereo not given) | 0% |  |
| O=C(O)c1cc(-n2c(-c3ccccc3)cc3c2CCCCC3)ccc1O | 50% | Activity [4]: Toxic |
| O=C(O)c1cc(-n2c(-c3ccccc3)cc3c2CCc2cc(Cl)ccc2-3)ccc1O | 50% |  |
| O=C(O)c1cc(-n2c(-c3ccc(Cl)cc3)cc3c2CCCC3)ccc1O | 40% |  |
| CC(=O)c1c2c(n(-c3ccc(O)c(C(=O)O)c3)c1-c1ccccc1)CCc1ccccc1-2 | 0% |  |
| O=C(O)c1cc(-n2c(-c3cccs3)cc3c2CCCC3)ccc1O | 30% |  |
| O=C(O)c1cc(-n2c(-c3ccccc3)cc3c2CCCC3)ccc1Cl | 40% |  |

| Compound | inhibition in vivo at 200 mg/kg [1] | further results |
| --- | --- | --- |
| CC(=O)Oc1ccccc1C(=O)O [ASPIRIN] | ≥ 60% | ED50 [2]: 140 mg/kg |
| COC(=O)c1cc(-n2c(-c3ccccc3)cc3c2CCCC3)ccc1SC(=O)N(C)C | 0% |  |
| O=C(O)c1cc(-n2c(-c3ccc(F)cc3)cc3c2CCCC3)ccc1O | ≥ 60% | ED50 [2]: 88 mg/kg |
| CC(=O)Oc1ccc(-n2c(-c3ccccc3)cc3c2CCc2ccccc2-3)cc1C(=O)O | 50% | ED50 [5]: 75 mg/kg |
| CCNC(=O)c1cc(-n2c(-c3ccccc3)cc3c2CCc2ccccc2-3)ccc1O | 0% |  |
| O=C(O)c1cc(-n2c(-c3ccccc3)cc3c2-c2ccccc2CC3)ccc1O | 0% |  |
| O=C(O)c1cc(-n2c(-c3cccc(C(F)(F)F)c3)cc3c2CCCC3)ccc1O | 20% |  |
| O=C(O)c1cc(-n2c(-c3ccc([N+](=O)[O-])cc3)cc3c2CCCC3)ccc1O | 30% |  |
| O=C(O)c1cc(-n2c(-c3ccccc3)cc3c2CCCC3)cc(Cl)c1O | 0% |  |
| O=C(O)c1cc(-n2c(-c3ccc(O)cc3)cc3c2CCCC3)ccc1O | 20% |  |
| O=C(O)c1cc(-n2c(-c3ccccc3)cc3ccccc32)ccc1O | ≥ 60% |  |
| COC1CCc2c(cc(-c3ccccc3)n2-c2ccc(O)c(C(=O)O)c2)C1 (stereo not given) | 40% |  |
| CC(=O)Nc1cc(-n2c(-c3ccccc3)cc3c2CCCC3)cc(C(=O)O)c1O | 0% |  |
| CC(C)(C)c1cc2c(n1-c1ccc(O)c(C(=O)O)c1)CCc1ccccc1-2 | 40% |  |
| Nc1ccc(-n2c(-c3ccccc3)cc3c2CCCC3)cc1C(=O)O | 40% |  |
| O=C(O)c1cc(-n2c(-c3ccccc3)cc3c2Cc2ccccc2-3)ccc1O | 30% |  |
| O=C(O)c1ccc(-n2c(-c3ccccc3)cc3c2CCCC3)cc1O | 0% |  |
| CC(C)(C)c1ccc2c(c1)cc(-c1ccccc1)n2-c1ccc(O)c(C(=O)O)c1 | 0% |  |
| O=C(O)c1cc(-n2c(-c3ccccc3)cc3c4ccccc4ccc32)ccc1O | ≥ 60% | ED50 [3]: 69 mg/kg; ED50 [2]: 105 mg/kg |
| COC(=O)c1cc(-n2c(-c3ccccc3)cc3c2CCc2ccccc2-3)ccc1O | 30% |  |
| COC(=O)c1cc(-n2c(-c3ccccc3)cc3c2CCCC3)ccc1O | 0% |  |
| O=C(O)c1cc(-n2c(-c3ccccc3)cc3c2CCc2ccccc2-3)ccc1O [FENDOSAL] | ≥ 60% | ED50 [5]: 66 mg/kg; ED50 [2]: 125 mg/kg |
| O=C(O)c1cc(-n2c(-c3ccccc3)cc3c2CCC3)ccc1O | 40% | Activity [4]: Toxic |
| COC(=O)c1cc(-n2c(-c3ccccc3)cc3c2CCCC3)ccc1OC(=S)N(C)C | 0% |  |
| CC(=O)Nc1ccc(-n2c(-c3ccccc3)cc3c2CCCC3)cc1C(=O)O | 30% |  |
| O=C(O)c1cccc(-n2c(-c3ccccc3)cc3c2CCCC3)c1 | 20% |  |
